Results: patent US9938270B2, “Mono-phosphate salt of 6-fluoro-2-[4-(pyridin-2-yl)but-3-yn-1-yl]imidazo[1,2A]pyridine (dipraglurant) and polymorphs thereof as negative allosteric modulator of MGLU5 receptor” (Addex Pharma S.A., priority 2013, dated 2018)
Values after ≈ are worked out from the molar mass of the structure shown.

Assay: aqueous solubility
Format: physicochemical
Details: aqueous medium, aqueous buffer; at all relevant physiological pH

SMILES	solubility [mg/mL]
Fc1ccc2nc(CCC#Cc3ccccn3)cn2c1.O=P(O)(O)O [mono-phosphate salt, 6-fluoro-2-[4-(pyridin-2-yl)but-3-yn-1-yl]imidazo[1,2-a]pyridine mono-phosphate salt]	21 to 32.5
Fc1ccc2nc(CCC#Cc3ccccn3)cn2c1 [free base, 6-Fluoro-2-[4-(pyridin-2-yl)but-3-yn-1-yl]imidazo[1,2-a]pyridine]	0.5 (≈ 1880 µM)
